# Measurements as given in PubChem BioAssay AID328 (DTP/NCI, 2004).
# Values joined by “and” are separate entries in the source; they are usually repeats but may differ in a detail not shown here. Identical values can stand only once. Inconclusive results and toxic doses are left out.
# System: BDF1 mice, P388 leukemia ip, median survival T/C
# Assay: NCI In Vivo Anticancer Drug Screen. Data for tumor model P388 Leukemia (intraperitoneal) in B6D2F1 (BDF1) mice
# Settings: endpoint: median survival time, higher = longer survival
# Summary of the method: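 Each value expresses how treatment altered survival: treated-mouse outcome over vehicle-mouse outcome, both groups bearing the transplanted tumour.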
# [1] = dose: 100.0 mg/kg/injection, schedule: Q01DX009 (ip), vehicle: saline with Tween-80
# [2] = dose: 100.0 mg/kg/injection, schedule: Q04DX003 (ip), vehicle: saline with Tween-80
# [3] = dose: 200.0 mg/kg/injection, schedule: Q01DX009 (ip), vehicle: saline with Tween-80
# [4] = dose: 200.0 mg/kg/injection, schedule: Q04DX003 (ip), vehicle: saline with Tween-80
# [5] = dose: 400.0 mg/kg/injection, schedule: Q01DX009 (ip), vehicle: saline with Tween-80
# [6] = dose: 400.0 mg/kg/injection, schedule: Q04DX003 (ip), vehicle: saline with Tween-80
# [7] = dose: 50.0 mg/kg/injection, schedule: Q01DX009 (ip), vehicle: saline with Tween-80
# [8] = dose: 6.25 mg/kg/injection, schedule: Q01DX009 (ip), vehicle: saline with Tween-80
# [9] = dose: 12.5 mg/kg/injection, schedule: Q01DX009 (ip), vehicle: saline with Tween-80
# [10] = dose: 25.0 mg/kg/injection, schedule: Q01DX009 (ip), vehicle: saline with Tween-80
# [11] = dose: 100.0 mg/kg/injection, schedule: Q01DX001 (ip), vehicle: saline with Tween-80
smiles,measurement,setting,value
CCCCN(c1ccccc1)c1ncnc2c1cnn2C,T/C,[1],92 % of control and 100 % of control
same,T/C,[2],100 % of control and 108 % of control
same,T/C,[3],107 % of control
same,T/C,[4],91 % of control and 100 % of control
same,T/C,[5],96 % of control and 100 % of control
same,T/C,[6],95 % of control and 100 % of control
CCCCOCN(COCCCC)c1ccccc1Cl,T/C,[7],116 % of control
same,T/C,[1],107 % of control and 121 % of control
O=c1oc2ccccc2cc1-c1csc(/C=N/N2CCOCC2)n1,T/C,[7],113 % of control
same,T/C,[1],104 % of control
CC(C)=CCNc1ncnc2nc[nH]c12,T/C,"dose: 10.0 mg/kg/injection, schedule: Q01DX009 (ip), vehicle: saline with Tween-80",104 % of control
same,T/C,"dose: 20.0 mg/kg/injection, schedule: Q01DX009 (ip), vehicle: saline with Tween-80",104 % of control
same,T/C,"dose: 20.0 mg/kg/injection, schedule: Q04DX003 (ip), vehicle: saline with Tween-80",95 % of control
same,T/C,"dose: 40.0 mg/kg/injection, schedule: Q04DX003 (ip), vehicle: saline with Tween-80",95 % of control
same,T/C,"dose: 80.0 mg/kg/injection, schedule: Q04DX003 (ip), vehicle: saline with Tween-80",100 % of control
C=CS(=O)(=O)c1ccccc1,T/C,"dose: 18.0 mg/kg/injection, schedule: Q01DX009 (ip), vehicle: saline with Tween-80",114 % of control
same,T/C,"dose: 18.0 mg/kg/injection, schedule: Q04DX003 (ip), vehicle: saline with Tween-80",90 % of control
same,T/C,"dose: 24.0 mg/kg/injection, schedule: Q01DX009 (ip), vehicle: saline with Tween-80",100 % of control
same,T/C,"dose: 36.0 mg/kg/injection, schedule: Q01DX009 (ip), vehicle: saline with Tween-80",116 % of control
same,T/C,"dose: 36.0 mg/kg/injection, schedule: Q04DX003 (ip), vehicle: saline with Tween-80",100 % of control
same,T/C,"dose: 72.0 mg/kg/injection, schedule: Q01DX009 (ip), vehicle: saline with Tween-80",114 % of control
same,T/C,"dose: 72.0 mg/kg/injection, schedule: Q04DX003 (ip), vehicle: saline with Tween-80",109 % of control
COc1cc2c(cc1OC)C1C(=CCC3c4cc(OC)c(OC)cc4CC[N+]31C)C=C2 (configuration not stated),T/C,[8],95 % of control
same,T/C,[9],104 % of control
same,T/C,[10],116 % of control
CC1=C(C)CC2C(=O)C(C(O)CC(C)C)=CC(=O)C2C1 (configuration not stated),T/C,[2],100 % of control
same,T/C,[4],113 % of control
same,T/C,[6],93 % of control
COc1cc(Nc2nc(Cl)ncc2[N+](=O)[O-])cc(OC)c1OC,T/C,[11],104 % of control
same,T/C,"dose: 200.0 mg/kg/injection, schedule: Q01DX001 (ip), vehicle: saline with Tween-80",100 % of control
same,T/C,"dose: 400.0 mg/kg/injection, schedule: Q01DX001 (ip), vehicle: saline with Tween-80",100 % of control
CCCCCCCCC(CO)CO,T/C,[7],100 % of control
same,T/C,[1],92 % of control
same,T/C,[3],95 % of control
COc1cc2cc(c1Cl)N(C)C(=O)CC(OC(=O)C(C)N(C)C(=O)C(C)C)C1(C)OC1C(C)C1CC(O)(NC(=O)O1)C(OC)/C=C/C=C(C)C2 (configuration not stated),T/C,"dose: 0.2 micrograms/kg/injection, schedule: Q01DX009 (ip), vehicle: saline + alcohol",165 % of control
same,T/C,"dose: 0.4 micrograms/kg/injection, schedule: Q01DX009 (ip), vehicle: saline + alcohol",155 % of control
same,T/C,"dose: 0.8 micrograms/kg/injection, schedule: Q01DX009 (ip), vehicle: saline + alcohol",190 % of control
same,T/C,"dose: 1.6 micrograms/kg/injection, schedule: Q01DX009 (ip), vehicle: saline + alcohol",155 % of control
same,T/C,"dose: 6.2 micrograms/kg/injection, schedule: Q01DX009 (ip), vehicle: saline + alcohol",155 % of control
same,T/C,"dose: 12.5 micrograms/kg/injection, schedule: Q01DX009 (ip), vehicle: saline + alcohol",120 % of control
O=C(Nc1cccc2ccccc12)C(F)(F)F,T/C,[9],109 % of control
same,T/C,[10],104 % of control
same,T/C,"dose: 25.0 mg/kg/injection, schedule: Q04DX003 (ip), vehicle: saline with Tween-80",91 % of control
same,T/C,[7],100 % of control
same,T/C,"dose: 50.0 mg/kg/injection, schedule: Q04DX003 (ip), vehicle: saline with Tween-80",99 % of control
same,T/C,[1],118 % of control
same,T/C,[2],90 % of control and 103 % of control
COC(=O)C1(C)CC2C(C)(CCC3(C)C4=CC=C5C(=CC(=O)C(O)=C5C)C4(C)CCC23C)CC1O (configuration not stated),T/C,"dose: 25.0 mg/kg/injection, schedule: Q01DX001 (ip), vehicle: saline with Tween-80",109 % of control
same,T/C,"dose: 50.0 mg/kg/injection, schedule: Q01DX001 (ip), vehicle: saline with Tween-80",91 % of control
same,T/C,[11],104 % of control
CC1NC(=O)C2Cc3ccc(O)c(c3)Oc3ccc(cc3)C(O)C(C(=O)N2C)N(C)C(=O)C(C)NC(=O)C(Cc2ccc(O)cc2)N(C)C(=O)C(C)NC1=O (configuration not stated),T/C,"dose: 1.0 mg/kg/injection, schedule: Q01DX009 (ip), vehicle: saline with Tween-80",98 % of control
same,T/C,"dose: 2.0 mg/kg/injection, schedule: Q01DX009 (ip), vehicle: saline with Tween-80",94 % of control
same,T/C,"dose: 4.0 mg/kg/injection, schedule: Q01DX009 (ip), vehicle: saline with Tween-80",107 % of control
same,T/C,"dose: 8.0 mg/kg/injection, schedule: Q01DX009 (ip), vehicle: saline with Tween-80",110 % of control
same,T/C,"dose: 16.0 mg/kg/injection, schedule: Q01DX009 (ip), vehicle: saline with Tween-80",101 % of control
O=C(OC(c1ccccc1)(C(F)(F)F)C(F)(F)F)c1cccc(Cl)c1,T/C,[7],104 % of control
same,T/C,[1],109 % of control
same,T/C,[3],118 % of control
C[C@]12[C@@H]3CC(=O)C[C@@]1(CC[C@@H]1[C@@H]2CC[C@]2(C)OC(=O)CC[C@@H]12)SS3,T/C,[1],100 % of control
same,T/C,[2],104 % of control
same,T/C,[3],91 % of control
same,T/C,[4],90 % of control
same,T/C,[5],95 % of control
same,T/C,[6],90 % of control
O=C(Nc1cccc2c1C(=O)c1cccc(NC(=O)c3ccc(C(=O)Nc4cccc5c4C(=O)c4cccc(NC(=O)c6ccccc6)c4C5=O)cc3)c1C2=O)c1ccccc1,T/C,[8],92 % of control
same,T/C,[9],107 % of control
same,T/C,[10],111 % of control
CCOC(=O)NP(=O)(N1CC1)N1CC1,T/C,"dose: 2.1 mg/kg/injection, schedule: Q04DX003 (ip), vehicle: saline",105 % of control
same,T/C,"dose: 3.1 mg/kg/injection, schedule: Q04DX003 (ip), vehicle: saline",110 % of control
same,T/C,"dose: 11.0 mg/kg/injection, schedule: Q04DX003 (ip), vehicle: saline",272 % of control
same,T/C,"dose: 25.0 mg/kg/injection, schedule: Q04DX003 (ip), vehicle: saline",225 % of control
same,T/C,"dose: 33.0 mg/kg/injection, schedule: Q04DX003 (ip), vehicle: saline",333 % of control and 220 % of control
same,T/C,"dose: 50.0 mg/kg/injection, schedule: Q04DX003 (ip), vehicle: saline",300 % of control and 172 % of control and 195 % of control
same,T/C,"dose: 75.0 mg/kg/injection, schedule: Q04DX003 (ip), vehicle: saline",88 % of control and 95 % of control
CCC(=O)O[C@H]1CC[C@H]2[C@@H]3C[C@H](F)C4=CC(=O)CC[C@]4(C)[C@H]3CC[C@]12C,T/C,[2],95 % of control
same,T/C,[4],95 % of control
same,T/C,"dose: 400.0 mg/kg/injection, schedule: Q01DX009 (ip), vehicle: saline sonified",109 % of control
same,T/C,[6],109 % of control
Cc1nc2n[nH]c(N)c2nc1C,T/C,"dose: 100.0 mg/kg/injection, schedule: Q01DX009 (ip), vehicle: saline",100 % of control
same,T/C,"dose: 200.0 mg/kg/injection, schedule: Q01DX009 (ip), vehicle: saline",100 % of control
same,T/C,"dose: 400.0 mg/kg/injection, schedule: Q01DX009 (ip), vehicle: saline",91 % of control
CC1(C)N=C(N)N=C(N)N1c1cccc(OCCOc2ccc([N+](=O)[O-])cc2)c1,T/C,"dose: 50.0 mg/kg/injection, schedule: Q01DX009 (ip), vehicle: saline sonified",110 % of control
same,T/C,"dose: 50.0 mg/kg/injection, schedule: Q04DX003 (ip), vehicle: saline sonified",100 % of control
same,T/C,"dose: 100.0 mg/kg/injection, schedule: Q01DX009 (ip), vehicle: saline sonified",160 % of control
same,T/C,"dose: 100.0 mg/kg/injection, schedule: Q04DX003 (ip), vehicle: saline sonified",107 % of control
same,T/C,"dose: 200.0 mg/kg/injection, schedule: Q04DX003 (ip), vehicle: saline sonified",107 % of control
CCSC(C(O)C(O)C(O)C(O)CO)n1ccc(=O)[nH]c1=O (configuration not stated),T/C,"dose: 12.5 mg/kg/injection, schedule: Q01DX001 (ip), vehicle: saline",100 % of control
same,T/C,"dose: 25.0 mg/kg/injection, schedule: Q01DX001 (ip), vehicle: saline",100 % of control
same,T/C,"dose: 50.0 mg/kg/injection, schedule: Q01DX001 (ip), vehicle: saline",100 % of control
O=C(CCN1CC1)Nc1ccc(Cl)c(Cl)c1,T/C,"dose: 25.0 mg/kg/injection, schedule: Q04DX003 (ip), vehicle: Klucel (hydroxypropylcellulose) (HPC)",90 % of control
same,T/C,"dose: 50.0 mg/kg/injection, schedule: Q04DX003 (ip), vehicle: Klucel (hydroxypropylcellulose) (HPC)",104 % of control
same,T/C,"dose: 100.0 mg/kg/injection, schedule: Q04DX003 (ip), vehicle: Klucel (hydroxypropylcellulose) (HPC)",100 % of control
